Data on 39 compounds can be found in ChEMBL document CHEMBL1141687, “Design, syntheses, and structure-activity relationships of novel NPY Y5 receptor antagonists: 2-{3-Oxospiro[isobenzofuran-1(3H),4'-piperidin]-1'-yl}benzimidazole derivatives” (Bioorg Med Chem Lett, 2008).

Each structure is given as a SMILES string. Active and inactive are the calls of the source. The rule behind the calls is not given here.

Data set [1] has as its target T1, Neuropeptide Y receptor type 5 (Homo sapiens, UniProt Q15761).
T1 sequence (Q15761 whole entry): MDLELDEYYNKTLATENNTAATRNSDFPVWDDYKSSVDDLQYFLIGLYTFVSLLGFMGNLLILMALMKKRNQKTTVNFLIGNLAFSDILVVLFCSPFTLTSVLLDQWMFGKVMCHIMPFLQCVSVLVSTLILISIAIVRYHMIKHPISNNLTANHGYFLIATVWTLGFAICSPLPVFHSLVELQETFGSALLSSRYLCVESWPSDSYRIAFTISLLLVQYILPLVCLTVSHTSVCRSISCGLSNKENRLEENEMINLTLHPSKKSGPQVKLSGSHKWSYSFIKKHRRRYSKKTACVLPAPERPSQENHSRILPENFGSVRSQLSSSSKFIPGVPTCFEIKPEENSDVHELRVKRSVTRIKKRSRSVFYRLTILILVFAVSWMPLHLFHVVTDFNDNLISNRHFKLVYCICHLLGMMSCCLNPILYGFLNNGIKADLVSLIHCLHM
Description: Binding affinity to human NPY Y5 receptor transfected in mouse LMtk cells. The format is cell-based.

The target in data set [2] is T2, Neuropeptide Y receptor type 1 (Homo sapiens, UniProt P25929).
T2 sequence (P25929 whole entry): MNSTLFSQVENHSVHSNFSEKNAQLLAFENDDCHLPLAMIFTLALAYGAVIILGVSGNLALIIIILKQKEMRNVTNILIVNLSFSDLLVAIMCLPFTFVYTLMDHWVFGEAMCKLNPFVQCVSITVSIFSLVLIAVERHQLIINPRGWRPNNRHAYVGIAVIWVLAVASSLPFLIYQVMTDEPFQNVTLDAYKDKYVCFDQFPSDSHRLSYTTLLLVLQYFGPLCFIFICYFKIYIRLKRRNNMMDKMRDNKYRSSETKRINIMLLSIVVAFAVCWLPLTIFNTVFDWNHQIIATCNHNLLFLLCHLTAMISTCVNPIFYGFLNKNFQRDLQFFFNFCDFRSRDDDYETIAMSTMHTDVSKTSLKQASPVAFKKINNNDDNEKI
In words: Binding affinity to NPY Y1 receptor.

For data set [3], the target named is T3, Neuropeptide Y receptor type 2 (Homo sapiens, UniProt P49146).
T3 sequence (P49146 whole entry): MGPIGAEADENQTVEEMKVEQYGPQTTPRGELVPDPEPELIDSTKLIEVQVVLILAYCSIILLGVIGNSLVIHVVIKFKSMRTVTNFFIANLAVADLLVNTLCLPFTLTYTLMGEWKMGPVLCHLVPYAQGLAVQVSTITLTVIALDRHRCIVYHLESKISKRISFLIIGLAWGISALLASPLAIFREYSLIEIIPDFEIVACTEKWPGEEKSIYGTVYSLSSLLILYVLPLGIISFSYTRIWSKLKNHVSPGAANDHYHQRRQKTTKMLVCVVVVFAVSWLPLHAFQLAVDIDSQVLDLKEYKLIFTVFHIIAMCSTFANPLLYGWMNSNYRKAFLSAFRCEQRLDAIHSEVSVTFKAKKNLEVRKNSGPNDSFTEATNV
In words: Binding affinity to NPY Y2 receptor.

In data set [4] the target is Neuropeptide Y receptor type 4 (Homo sapiens, UniProt P50391). Description: Binding affinity to NPY Y4 receptor.
Chain of Neuropeptide Y receptor type 4 (P50391 whole entry): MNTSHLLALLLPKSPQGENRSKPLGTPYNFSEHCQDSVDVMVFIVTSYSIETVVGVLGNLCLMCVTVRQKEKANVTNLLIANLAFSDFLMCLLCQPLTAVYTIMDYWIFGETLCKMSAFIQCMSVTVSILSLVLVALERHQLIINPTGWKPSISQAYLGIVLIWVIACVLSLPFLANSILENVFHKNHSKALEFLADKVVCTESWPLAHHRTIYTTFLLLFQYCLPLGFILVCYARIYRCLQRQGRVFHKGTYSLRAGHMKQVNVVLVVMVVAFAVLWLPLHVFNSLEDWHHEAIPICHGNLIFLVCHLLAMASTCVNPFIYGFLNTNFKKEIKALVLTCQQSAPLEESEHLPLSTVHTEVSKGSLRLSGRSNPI
Data set [5] addresses T1, Neuropeptide Y receptor type 5. Description: Antagonist activity at human NPY Y5 receptor transfected in mouse LMtk cells assessed as inhibition of neuropeptide Y-induced increase in […] Ca2+ level. The format is functional, cell-based.
Data set [6] concerns Rattus norvegicus. In words: Plasma concentration in rat at 10 mg/kg, po after 2 hrs. On the set-up: dose 10 mg/kg, route oral. The format is ADME, organism-based.
For data set [7], the system named is Rattus norvegicus. Description: Plasma concentration in rat at 10 mg/kg, po after 4 hrs. The format is ADME, organism-based. On the set-up: dose 10 mg/kg, route oral.
The nature of data set [8]: in vivo. Particulars: rat, brain and plasma, po, 10 mg/kg.
Description: Ratio of drug level in brain to plasma in rat at 10 mg/kg, po after 2 hrs
Data set [9] concerns Rattus norvegicus. Description: Suppression of intracerebroventricular injected D-trp34NPY-induced food intake in SD rat at 10 mg/kg, po administered 2 hrs prior to ICV injection measured after 2 hrs of D-trp34NPY challenge. It counts as functional, organism-based. The arrangement: dose 10 mg/kg.

As usually defined, the IC50 is the midpoint of a concentration-inhibition curve. A word on the Kp: it is tissue or fluid exposure divided by exposure in the circulation. With `O=C1OC2(CCN(c3nc4cc(-c5ccccc5)ccc4[nH]3)CC2)c2ccccc21`, the 50% inhibitory concentration (IC50) was 2.4 nM in data set [1]; greater than 10000 nM in data set [2]; greater than 10000 nM in data set [3]; greater than 10000 nM in data set [4]; 1.8 nM in data set [5]. In addition, the Concentration in [6] turned out to be 1.8 µM. The plasma concentration in data set [7] stood at 1.3 µM. In data set [8], this compound returned a partition ratio (Kp) at 2 h of 0.35. Consider `O=C1OC2(CCN(c3nc4cccc(Cl)c4[nH]3)CC2)c2ccccc21`, for which the 50% inhibitory concentration (IC50) in [1] was found to be 51 nM. Consider `CNC(=O)c1ccc2nc(N3CCC4(CC3)OC(=O)c3ccccc34)[nH]c2c1`, for which the concentration for half-maximal inhibition (IC50) in data set [1] was determined as 20 nM. Consider `CS(=O)(=O)Nc1ccc2nc(N3CCC4(CC3)OC(=O)c3ccccc34)[nH]c2c1`, for which the concentration for half-maximal inhibition (IC50) in [1] came out at 56 nM. Regarding `NC(=O)c1ccc2nc(N3CCC4(CC3)OC(=O)c3ccccc34)[nH]c2c1`, the IC50 in [1] is 110 nM. `O=C1OC2(CCN(Cc3nc4ccccc4[nH]3)CC2)c2ccccc21` registered a 50% inhibitory concentration (IC50) in [1] of 4900 nM.

For `CN(C)C(=O)c1ccc2nc(N3CCC4(CC3)OC(=O)c3ccccc34)[nH]c2c1`, the IC50 in data set [1] came to 58 nM.

In [1], `O=C1OC2(CCN(c3nc4ccccc4[nH]3)CC2)c2ccccc21` gave an IC50 of 140 nM. In turn, `O=C1O[C@]2(CC[C@H](c3nc4ncccc4[nH]3)CC2)c2ccccc21` had an IC50 in [1] of 91 nM.

For the compound `O=C1OC2(CCN(c3nc4c(F)cccc4[nH]3)CC2)c2ccccc21`, in data set [1], the concentration for half-maximal inhibition (IC50) was 500 nM. On the same count and under the same terms, the result for `O=C1OC2(CCN(c3nc4cc5c(cc4[nH]3)OC(F)(F)O5)CC2)c2ccccc21` reads 2.2 nM. On the same count and under the same terms, next, `O=C1OC2(CCN(c3nc4ccc([N+](=O)[O-])cc4[nH]3)CC2)c2ccccc21`: 10 nM. Turning to `COC(=O)c1ccc2[nH]c(N3CCC4(CC3)OC(=O)c3ccccc34)nc2c1`, the IC50 is 2.7 nM in [1]; greater than 10000 nM in data set [2]; greater than 10000 nM in [3]; greater than 10000 nM in data set [4]; 1.5 nM in data set [5]. The compound also came in with a Concentration in [6] of 3.2 µM. The compound further registered a plasma concentration in [7] of 0.1 µM. In addition, the Kp at 2 h in [8] was 0.08. The compound `COc1cccc2[nH]c(N3CCC4(CC3)OC(=O)c3ccccc34)nc12` displayed an IC50 in [1] of 250 nM. `O=C1O[C@]2(CC[C@@H](c3nc4cccnc4[nH]3)CC2)c2ccccc21` came in with a concentration for half-maximal inhibition (IC50) in [1] of 1400 nM.

Take `O=C1OC2(CCN(c3nc4cccc(C(F)(F)F)c4[nH]3)CC2)c2ccccc21`: the IC50 in data set [1] came to 83 nM.

For the compound `O=C1OC2(CCN(c3nc4cc(Cl)c(Cl)cc4[nH]3)CC2)c2ccccc21`, the 50% inhibitory concentration (IC50) in data set [1] is 1.6 nM; in [2], greater than 10000 nM; in [3], greater than 10000 nM; in data set [4], greater than 10000 nM; in [5], 1.4 nM. Further, in data set [6], the Concentration was determined as 2.9 µM. Further, the plasma concentration in data set [7] was determined as 4.6 µM. In data set [1], `CC(=O)Nc1ccc2nc(N3CCC4(CC3)OC(=O)c3ccccc34)[nH]c2c1` returned an IC50 of 130 nM. Take `CCOC(=O)c1ccc2nc(N3CCC4(CC3)OC(=O)c3ccccc34)[nH]c2c1`: the half-maximal inhibitory concentration (IC50) in data set [1] is 2 nM. In the case of `Cc1cccc2[nH]c(N3CCC4(CC3)OC(=O)c3ccccc34)nc12`, the IC50 in [1] stood at 74 nM. In turn, `Cc1ccc2[nH]c(N3CCC4(CC3)OC(=O)c3ccccc34)nc2c1` returned an IC50 in [1] of 36 nM.

Compound `CC(C)Cc1ccc2nc(N3CCC4(CC3)OC(=O)c3ccccc34)[nH]c2c1` gave a half-maximal inhibitory concentration (IC50) in data set [1] of 1.8 nM. Turning to `O=C1OC2(CCN(c3nc4cc(Cl)ccc4[nH]3)CC2)c2ccccc21`, the half-maximal inhibitory concentration (IC50) was 6.6 nM in [1]; greater than 10000 nM in data set [2]; greater than 10000 nM in [3]; greater than 10000 nM in data set [4]; 1.2 nM in data set [5]. In [6], this compound gave a Concentration of 27.8 µM. This compound also showed a plasma concentration in [7] of 25.6 µM. Regarding `O=C1OC2(CCN(c3nc4ccccc4s3)CC2)c2ccccc21`, in data set [1], the concentration for half-maximal inhibition (IC50) was greater than 10000 nM. On to `O=C1OC2(CCN(c3nc4cc5c(cc4[nH]3)OCO5)CC2)c2ccccc21`, for which, in [1], the half-maximal inhibitory concentration (IC50) came to 9.3 nM. On the same count and under the same terms, next, `CS(=O)(=O)c1ccc2[nH]c(N3CCC4(CC3)OC(=O)c3ccccc34)nc2c1`: 85 nM; `CS(=O)(=O)N1CC2(CCN(c3nc4ccccc4[nH]3)CC2)c2ccccc21`: greater than 1000 nM. The same measure, in the same setting: next, `O=C1OC2(CCN(c3nc4cccnc4[nH]3)CC2)c2ccccc21`: 1600 nM; `O=C(O)c1ccc2[nH]c(N3CCC4(CC3)OC(=O)c3ccccc34)nc2c1`: greater than 1000 nM.

As to `O=C1OC2(CCN(c3nc4cc(C(F)(F)F)ccc4[nH]3)CC2)c2ccccc21`, the IC50 in data set [1] is 3.5 nM; in data set [2], greater than 10000 nM; in [3] it was greater than 10000 nM; in [4] it was greater than 10000 nM; in [5], 6.4 nM. In data set [6], this compound showed a Concentration of 15.3 µM. The compound also came in with a plasma concentration in [7] of 17.5 µM. For the same compound, in data set [9], the result was Active. The partition ratio (Kp) at 2 h in data set [8] was 0.31. For the compound `Cc1cc2nc(N3CCC4(CC3)OC(=O)c3ccccc34)[nH]c2cc1C`, the concentration for half-maximal inhibition (IC50) in [1] was 9.2 nM. In data set [1], `N#Cc1ccc2[nH]c(N3CCC4(CC3)OC(=O)c3ccccc34)nc2c1` yielded a half-maximal inhibitory concentration (IC50) of 19 nM. As for `O=C1OC2(CCN(c3nc4cc(F)c(F)cc4[nH]3)CC2)c2ccccc21`, in data set [1], the IC50 was 4.8 nM. On to `O=C1OC2(CCN(c3nc4ccc(Br)cc4[nH]3)CC2)c2ccccc21`, for which the concentration for half-maximal inhibition (IC50) in data set [1] is 10 nM.

Compound `O=C1OC2(CCN(c3nc4cc(F)ccc4[nH]3)CC2)c2ccccc21` registered an IC50 in [1] of 28 nM. As for `COc1ccc2[nH]c(N3CCC4(CC3)OC(=O)c3ccccc34)nc2c1`, in [1], the IC50 was found to be 37 nM. Compound `O=C1OC2(CCN(c3nc4cc(Cl)c(F)cc4[nH]3)CC2)c2ccccc21` had an IC50 in data set [1] of 6.7 nM. Regarding `O=C1OC2(CCN(c3nc4c(-c5ccccc5)cccc4[nH]3)CC2)c2ccccc21`, the half-maximal inhibitory concentration (IC50) in data set [1] stood at 17 nM. Still for that read-out and setting: the result for `O=C1OC2(CCN(c3nc4cc(Cl)cc(Cl)c4[nH]3)CC2)c2ccccc21` reads 5.7 nM.
